Columns and labels:
[1] = biological target: recombinant human 5′-nucleotidase (CD73) (Homo sapiens (Human), UniProt P21589); test: Inhibition of CD73 enzyme activity in vitro (Malachite Green phosphate detection, CMP substrate); details: 0.34 nM recombinant human CD73, 2 h pre-incubation at 37° C., 45 μM CMP; read-out: IC50 values of biochemical inhibition of CD73 enzymatic activity
Protocol: Test Example 1, Test of the Compounds of the Present Invention for their Inhibition on CD73 Enzyme Activity In Vitro
CD73 enzyme, an ecto-5′-Nucleotidase, converts extracellular nucleoside-5′-monophosphates to nucleosides, with AMP or CMP as the preferred substrate. In this assay, recombinant human CD73 expressed from a Chinese hamster ovary cell line (R&D Systems) was used to convert cytidine monophosphate (CMP) to cytidine and phosphate. Before adding substrate, CD73 enzyme was pre-incubated with compounds for 2 hours. The amount of phosphate was then measured by Malachite Green Phosphate Detection Kit. The experimental method is summarized as follows:
Compounds are first dissolved in DMSO to 10 mM as a stock solution. When determining the IC50 of the compound, prepare 3-fold serial dilutions with a highest concentration of 125 μM for a total of 12 concentration points and ensure each dilution containing equal amount of DMSO. In each well of 384-well plate, 0.34 nM of recombinant human 5′-nucleotidase (CD73) was pre-incubated at 37° C. for 2 hours with the compounds tested in assay buffer containing 20 mM HEPES buffer (pH 7.4), 137 mM NaCl, 0.001% Tween 20. The final reaction volume of the reaction in each well was 12 μL. The highest concentration of compound was 125 μM and the DMSO concentration was 1.25%. After pre-incubation, 3 μL of CMP dissolved in assay buffer was added to each reaction. The final CMP concentration was 45 μM. The reaction was incubated at 37° C. for 15 minutes. Then 3 μL of Malachite Green Reagent A was added to each reaction. Spin the plate briefly in centrifuge for 30 seconds. After incubation for additional 10 minutes at room temperature, 3 μL of malachite green Reagent B was added to each reaction. Spin the plate briefly in centrifuge for 30 seconds. After 20 minutes of incubation at room temperature, the signal was read on a TECAN reader at OD620. The reaction containing CD73 enzyme, substrate CMP and DMSO (no compound) is used as an assay positive control while the reaction containing substrate CMP and DMSO without the CD73 enzyme as an assay negative control. IC50 values were calculated by plotting the logarithm of the compound concentration and the percent inhibition using the appropriate program in GraphPad Prism.
The biochemical inhibitions of CD73 enzymatic activities by the compounds of the present invention were determined by the assay described above, and the resulting IC50 values are shown in Table 1.

[2] = system: human peripheral blood mononuclear cells (PBMCs); test: IFNγ cytokine production in human PBMCs with AMP and CD3/CD28 antibody beads (HTRF); format: cell-based; details: compound 10 μM, 50 μM AMP, 72 hours
Protocol: Test Example 2 Determination of Compound of the Present Invention Modulates Cellular Immune Function by IFNγ Cytokine Production
Lymphocyte medium and TexMACS medium were incubated in a water bath at 37° C. 10 mL of incubated lymphocyte medium was added to a 50 mL conical tube. The cells were quickly thawed in a 37° C. water bath and transferred to a 50 ml tube and the tube gently swirled. The cell suspension was centrifuged at 1100 rpm for 10 minutes at room temperature. The supernatant was removed, and the cell pellet gently resuspended in 10 mL of TexMACS medium. The cells were counted to make 5×10^5 cells/ml. 100 μL of 5×10^5 cells/ml of PBMCs seeds, inserted into a 96-well plate (cell density of 50,000 cells/well), and the most outer edge wells of the 96-well plate were filled with water and were not used for the test. […] Read the values of 665 nm and 620 nm on a PHERAstar FSX Multilabel Reader.
Calculated ratio=(signal at 665 nm/signal at 620 nm)×10^4, which reflected the “raw signal”. […] The concentration of IFNγ cytokine of each sample corresponding to the standard curve was calculated. […]
The production of IFNγ cytokines by the compounds of the present invention was measured by the above test. […]

Chain of recombinant human 5′-nucleotidase (CD73) (P21589 27-574): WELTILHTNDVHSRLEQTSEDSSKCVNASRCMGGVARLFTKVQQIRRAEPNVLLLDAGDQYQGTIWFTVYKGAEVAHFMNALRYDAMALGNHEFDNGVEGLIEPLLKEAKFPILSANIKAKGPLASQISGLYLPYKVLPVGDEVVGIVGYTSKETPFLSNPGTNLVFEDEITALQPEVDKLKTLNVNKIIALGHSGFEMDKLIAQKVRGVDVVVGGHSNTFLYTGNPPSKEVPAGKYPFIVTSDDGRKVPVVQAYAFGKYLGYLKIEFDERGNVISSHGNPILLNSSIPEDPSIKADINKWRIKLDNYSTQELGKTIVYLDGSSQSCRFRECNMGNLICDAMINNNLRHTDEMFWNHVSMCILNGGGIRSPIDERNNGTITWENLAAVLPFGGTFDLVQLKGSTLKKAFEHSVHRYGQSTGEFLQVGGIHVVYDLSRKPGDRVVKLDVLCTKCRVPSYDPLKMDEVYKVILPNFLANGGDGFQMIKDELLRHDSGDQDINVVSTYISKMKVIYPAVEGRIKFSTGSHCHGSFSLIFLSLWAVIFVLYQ

Structure (SMILES) | IC50 [1] [nM] | Response rate of IFNγ cytokines by a compound (fold) as compared to vehicle control (DMSO) [2] [folds]
O=P(O)(O)COC[C@H]1O[C@@H](n2ncc3c(N4CC5(CCc6ccc(F)cc65)C4)nc(Cl)nc32)[C@H](O)[C@@H]1O [Example 6, ((((2R,3S,4R,5R)-5-(6-chloro-4-(6′-fluoro-2′,3′-dihydrospiro[azetidine-3,1′-inden]-1-yl)-1H-pyrazolo[3,4-d]pyrimidin-1-yl)-3,4-dihydroxytetrahydrofuran-2-yl)methoxy)methyl)phosphonic acid] | 0.25 | 
CC(C)OC(=O)OCOP(=O)(O)COC[C@H]1O[C@@H](n2ncc3c(N4CC5(CCc6ccccc65)C4)nc(Cl)nc32)[C@H](O)[C@@H]1O [Example 3, ((((((2R,3S,4R,5R)-5-(6-chloro-4-(2′,3′-dihydrospiro[azetidine-3,1′-inden]-1-yl)-1H-pyrazolo[3,4-d]pyrimidin-1-yl)-3,4-dihydroxytetrahydrofuran-2-yl)methoxy)methyl)(hydroxy)phosphoryl)oxy)methyl isopropyl carbonate] | 2.1 | 
O=P(O)(O)COC[C@H]1O[C@@H](n2ncc3c(N4CC5(CCc6ccccc65)C4)nc(Cl)nc32)[C@H](O)[C@@H]1O [Example 2, ((((2R,3S,4R,5R)-5-(6-chloro-4-(2′,3′-dihydrospiro[azetidine-3,1′-inden]-1-yl)-1H-pyrazolo[3,4-d]pyrimidin-1-yl)-3,4-dihydroxytetrahydrofuran-2-yl)methoxy)methyl)phosphonic acid] | 0.013 | 4.3
O=P(O)(COC[C@H]1O[C@@H](n2ncc3c(N4CC5(CCc6ccccc65)C4)nc(Cl)nc32)[C@H](O)[C@@H]1O)Oc1ccccc1 [Example 11, phenyl hydrogen ((((2R,3S,4R,5R)-5-(6-chloro-4-(2′,3′-dihydrospiro[azetidine-3,1′-inden]-1-yl)-1H-pyrazolo[3,4-d]pyrimidin-1-yl)-3,4-dihydroxytetrahydrofuran-2-yl)methoxy)methyl)phosphonate] | 0.9 | 
COc1ccc2c(c1)CCC21CN(c2nc(Cl)nc3c2cnn3[C@@H]2O[C@H](COCP(=O)(O)O)[C@@H](O)[C@H]2O)C1 [Example 7, ((((2R,3S,4R,5R)-5-(6-chloro-4-(5′-methoxy-2′,3′-dihydrospiro[azetidine-3,1′-inden]-1-yl)-1H-pyrazolo[3,4-d]pyrimidin-1-yl)-3,4-dihydroxytetrahydrofuran-2-yl)methoxy)methyl)phosphonic acid] | 0.13 | 
O=P(O)(O)COC[C@H]1O[C@@H](n2ncc3c(N4CC5(CCCCC5)C4)nc(Cl)nc32)[C@H](O)[C@@H]1O [Example 1, ((((2R,3S,4R,5R)-5-(6-chloro-4-(2-azaspiro[3.5]nonan-2-yl)-1H-pyrazolo[3,4-d]pyrimidin-1-yl)-3,4-dihydroxytetrahydrofuran-2-yl)methoxy)methyl)phosphonic acid] | 0.11 | 4.1
CC(C)OC(=O)OCOP(=O)(COC[C@H]1O[C@@H](n2ncc3c(N4CC5(CCc6ccccc65)C4)nc(Cl)nc32)[C@H](O)[C@@H]1O)OCOC(=O)OC(C)C [Example 4, ((((((2R,3S,4R,5R)-5-(6-chloro-4-(2′,3′-dihydrospiro[azetidine-3,1′-inden]-1-yl)-1H-pyrazolo[3,4-d]pyrimidin-1-yl)-3,4-dihydroxytetrahydrofuran-2-yl)methoxy)methyl)phosphoryl)bis(oxy))bis(methylene) diisopropyl decarbonate] | 710 | 
CC(OC(=O)C(C)(C)C)OP(=O)(O)COC[C@H]1O[C@@H](n2ncc3c(N4CC5(CCc6ccccc65)C4)nc(Cl)nc32)[C@H](O)[C@@H]1O (stereo partly drawn) [Example 9, 1-((((((2R,3S,4R,5R)-5-(6-chloro-4-(2′,3′-dihydrospiro[azetidine-3,1′-inden]-1-yl)-1H-pyrazolo[3,4-d]pyrimidin-1-yl)-3,4-dihydroxytetrahydrofuran-2-yl)methoxy)methyl)(hydroxy)phosphoryl)oxy)ethyl pivalate] | 8.5 | 
O=P(COC[C@H]1O[C@@H](n2ncc3c(N4CC5(CCc6ccccc65)C4)nc(Cl)nc32)[C@H](O)[C@@H]1O)(Oc1ccccc1)Oc1ccccc1 [Example 10, diphenyl((((2R,3S,4R,5R)-5-(6-chloro-4-(2′,3′-dihydrospiro[azetidine-3,1′-inden]-1-yl)-1H-pyrazolo[3,4-d]pyrimidin-1-yl)-3,4-dihydroxytetrahydrofuran-2-yl)methoxy)methyl)phosphonate] | 7.6 | 
O=P(O)(O)COC[C@H]1O[C@@H](n2ncc3c(N4CC5(C4)OCc4cc(Cl)ccc45)nc(Cl)nc32)[C@H](O)[C@@H]1O [Example 5, ((((2R,3S,4R,5R)-5-(6-chloro-4-(5′-chloro-3′H-spiro[azetidine-3,1′-isobenzofuran]-1-yl)-1H-pyrazolo[3,4-d]pyrimidin-1-yl)-3,4-dihydroxytetrahydrofuran-2-yl)methoxy)methyl)phosphonic acid] | 0.074 | 
O=P(O)(O)Cc1cccc(OC[C@H]2O[C@@H](n3ncc4c(N5CC6(CCCCC6)C5)nc(Cl)nc43)[C@H](O)[C@@H]2O)c1 [Example 12, (3-(((2R,3S,4R,5R)-5-(6-chloro-4-(2-azaspiro[3.5]nonan-2-yl)-1H-pyrazolo[3,4-d]pyrimidin-1-yl)-3,4-dihydroxytetrahydrofuran-2-yl)methoxy)benzyl)phosphonic acid] | 300 | 

From patent US11332492B2, “CD73 inhibitors and therapeutic uses thereof” (Jiangsu Hengrui Medicine Co., Ltd., priority 2018, dated 2022)
